Assay results from PubChem BioAssay AID1918954 (Molecular Pharmacology Branch, DTP, NCI, 2023).

Test system: MDA-MB-468 complex spheroids with HUVEC/MSC, viability
Test: Anticancer human tumor MDA-MB-468 cell line growth inhibition;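 note: spheroids exposed to agents for seven days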;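 for viability, T/C: 100% = DMSO vehicle control viability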
Details: for IC50: curve of first compound; for viability, T/C: stronger effect = lower value
Outline: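 Drug combinations with the LSD1 inhibitor iadademstat tested on tumor cells co-cultured as spheroids with endothelial cells and mesenchymal stem cells. Concentrations descended in half-log increments from clinical Cmax or 10 microM.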

[1] = second compound 0.1 µM, first compound 0.0316 µM
[2] = second compound 0.1 µM, first compound 0.1 µM
[3] = second compound 0.1 µM, first compound 0.316 µM
[4] = second compound 0.1 µM, first compound 1 µM
[5] = second compound 0.1 µM, first compound 3.16 µM
[6] = second compound 0.1 µM, first compound 10 µM
[7] = second compound 0.316 µM, first compound 0.0316 µM
[8] = second compound 0.316 µM, first compound 0.1 µM
[9] = second compound 0.316 µM, first compound 0.316 µM
[10] = second compound 0.316 µM, first compound 1 µM
[11] = second compound 0.316 µM, first compound 3.16 µM
[12] = second compound 0.316 µM, first compound 10 µM
[13] = second compound 1 µM, first compound 0.0316 µM
[14] = second compound 1 µM, first compound 0.1 µM
[15] = second compound 1 µM, first compound 0.316 µM
[16] = second compound 1 µM, first compound 1 µM
[17] = second compound 1 µM, first compound 3.16 µM
[18] = second compound 1 µM, first compound 10 µM
[19] = second compound 3.16 µM, first compound 0.0316 µM
[20] = second compound 3.16 µM, first compound 0.1 µM
[21] = second compound 3.16 µM, first compound 0.316 µM
[22] = second compound 3.16 µM, first compound 1 µM
[23] = second compound 3.16 µM, first compound 3.16 µM
[24] = second compound 3.16 µM, first compound 10 µM
[25] = second compound 10 µM, first compound 0.0316 µM
[26] = second compound 10 µM, first compound 0.1 µM
[27] = second compound 10 µM, first compound 0.316 µM
[28] = second compound 10 µM, first compound 1 µM
[29] = second compound 10 µM, first compound 3.16 µM
[30] = second compound 10 µM, first compound 10 µM

Row | SMILES | IC50 (second compound 0.1 µM) [µM] | IC50 (second compound 0.316 µM) [µM] | IC50 (second compound 1 µM) [µM] | IC50 (second compound 3.16 µM) [µM] | IC50 (second compound 10 µM) [µM] | viability, T/C [1] [%] | viability, T/C [2] [%] | viability, T/C [3] [%] | viability, T/C [4] [%] | viability, T/C [7] [%] | viability, T/C [8] [%] | viability, T/C [9] [%] | viability, T/C [10] [%] | viability, T/C [13] [%] | viability, T/C [14] [%] | viability, T/C [15] [%] | viability, T/C [16] [%] | viability, T/C [19] [%] | viability, T/C [20] [%] | viability, T/C [21] [%] | further results
1 | CC(C)c1c(-c2ccccc2)nc2c(C#N)c[nH]n2c1=O + NC1CCC(NC2CC2c2ccccc2)CC1 | > 10 | > 10 | > 10 | > 10 | > 10 | 96.1 | 109 | 109 | 108 | 99.2 | 101 | 84.3 | 99.5 | 102 | 103 | 96.3 | 102 | 82.2 | 102 | 77.7 | viability, T/C [5]: 105%; viability, T/C [6]: 85.4%; viability, T/C [11]: 102%; viability, T/C [12]: 99.5%; viability, T/C [17]: 101%; viability, T/C [18]: 85.8%; viability, T/C [22]: 95.4%; viability, T/C [23]: 50.7%; viability, T/C [24]: 62.5%; viability, T/C [25]: 74%; viability, T/C [26]: 66.7%; viability, T/C [27]: 70.2%; viability, T/C [28]: 57.2%; viability, T/C [29]: 66%; viability, T/C [30]: 70.4%
2 | CC1COCCN1c1cc(-c2ccnn2C)c2ccnc(-c3ccn[nH]3)c2n1 (stereo not given) + NC1CCC(NC2CC2c2ccccc2)CC1 | 0.0152 | 0.0162 | 0.016 | 0.0122 | 0.00461 | 42.3 | 22.9 | 15.6 | 11.2 | 38.2 | 23 | 16.5 | 13.8 | 37.3 | 23.2 | 16.4 | 9.5 | 38.9 | 27.6 | 18.4 | viability, T/C (second compound 0.1 µM, first compound 0.00316 µM): 81.7%; viability, T/C (second compound 0.1 µM, first compound 0.01 µM): 54.2%; viability, T/C (second compound 0.316 µM, first compound 0.00316 µM): 68.7%; viability, T/C (second compound 0.316 µM, first compound 0.01 µM): 58.5%; viability, T/C (second compound 1 µM, first compound 0.00316 µM): 72.8%; viability, T/C (second compound 1 µM, first compound 0.01 µM): 59%; viability, T/C (second compound 3.16 µM, first compound 0.00316 µM): 60.4%; viability, T/C (second compound 3.16 µM, first compound 0.01 µM): 52.7%; viability, T/C [22]: 14.9%; viability, T/C (second compound 10 µM, first compound 0.00316 µM): 52.9%; viability, T/C (second compound 10 µM, first compound 0.01 µM): 44%; viability, T/C [25]: 30.1%; viability, T/C [26]: 19%; viability, T/C [27]: 17.4%; viability, T/C [28]: 13.4%
3 | COc1ccc([C@@H](O)c2cc(-c3ncnc4cc(N5CCOCC5)ccc34)c(F)cc2Cl)nn1 + NC1CCC(NC2CC2c2ccccc2)CC1 | 1.07 | 1.16 | 0.817 | 0.832 | 1.34 | 97.8 | 83.5 | 68 | 50 | 101 | 83.7 | 71.7 | 52.3 | 90.5 | 86.9 | 58.3 | 45.9 | 100 | 64.9 | 61.7 | viability, T/C [5]: 35%; viability, T/C [6]: 12.8%; viability, T/C [11]: 33.6%; viability, T/C [12]: 13.1%; viability, T/C [17]: 33.9%; viability, T/C [18]: 12.5%; viability, T/C [22]: 55.4%; viability, T/C [23]: 33.2%; viability, T/C [24]: 15.6%; viability, T/C [25]: 51.3%; viability, T/C [26]: 58.3%; viability, T/C [27]: 57.5%; viability, T/C [28]: 55%; viability, T/C [29]: 35.2%; viability, T/C [30]: 12.7%
